# Columns and labels:
# [1] = tested on: 4T1 R8 cells; experiment: Cell viability assay, 4T1 R8 cells; type: cell-based, mouse; details: with 400 nM paclitaxel, 72 hr
# Protocol: MCF-7, MDA-MB-231, MDA-MB-468, Hs578T, 4T1, and HeLa cell lines stably expressing H2B-mCherry and eGFP-tubulin (kindly provided by Dr. Anthony A. Hyman, Max-Planck-Institute for Molecular Cell Biology and Genetics, Dresden, Germany) were cultured in high-glucose Dulbecco's Modified Eagle Medium (DMEM). SK-BR-3 cells were cultured in McCoy's Modified 5a Medium. Hs578T cells were cultured in high-glucose DMEM supplemented with an additional 0.01 mg/mL bovine insulin. […] All mentioned media were supplemented with 10% fetal bovine serum (Gibco) and 1% Penicillin/Streptomycin (Corning), and cells were incubated at 37° C. in a humidified atmosphere containing 5% CO2. HEK293 cells were cultured in HE300 medium (GMEP incorporated, Japan) and maintained in suspension culture with 125 rpm and 8% CO2.
# (§1) The cancer cells were cultured in a 96-well plate at a confluence of 1000-2000 cells/well with indicated drugs for specific days. When the time was up, the culture medium in the plate was aspirated and replaced with a prepared CellTiter-Glo reagent/DMEM mixture (1:1 mix of CellTiter-Glo reagent and serum-supplemented DMEM). After incubation for 10 min, the luminescence (proportional to the number of living cells) was measured with an ELISA plate reader to determine the cell viability.
# [2] = target: T1, KIF2C (Homo sapiens, UniProt Q99661); experiment: In vitro microtubule depolymerization assay; type: biochemical; details: 50 μM 7S9, recombinant KIF2C and ATP, 30 min
# T1 construct: KIF2C (216-598 a.a.); 6xHis (C); made in house; host or cells: E. coli BL21 (DE3), pET-28a
# T1 sequence (Q99661 216-598): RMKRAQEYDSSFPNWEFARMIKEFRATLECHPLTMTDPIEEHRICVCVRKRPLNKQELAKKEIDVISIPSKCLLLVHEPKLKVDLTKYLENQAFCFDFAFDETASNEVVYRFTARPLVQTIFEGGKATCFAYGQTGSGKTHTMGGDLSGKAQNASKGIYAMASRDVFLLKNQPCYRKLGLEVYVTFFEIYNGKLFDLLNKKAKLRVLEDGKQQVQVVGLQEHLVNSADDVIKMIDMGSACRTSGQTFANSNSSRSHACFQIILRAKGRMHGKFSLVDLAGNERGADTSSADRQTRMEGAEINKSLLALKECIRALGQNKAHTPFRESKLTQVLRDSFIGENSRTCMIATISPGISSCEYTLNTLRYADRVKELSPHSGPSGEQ
# Protocol: Additional purified KIF2C (0.5 ng/μl), ATP (0.75 mM), and 7S9 (50 μM) were included in a typical 10 μL reaction, as indicated, loaded onto a p-Slide (Ibidi, 81506) and incubated at 37° C. for 30 min. Images were acquired using the Leica DMI6000 microscope with an HCX PL FL 20×/0.4 and Andor Neo sCMOS camera, which were all processed by MetaMorph software (Molecular Devices, LLC. San Jose, CA, USA).
# [3] = tested on: HeLa cells expressing H2B-mCherry and eGFP-tubulin; experiment: Live-cell imaging of intracellular microtubule distribution; type: cell-based
# Protocol: For the microtubule distribution analysis, HeLa cell line stably expressing H2B-mCherry and eGFP-tubulin (a kind gift from Anthony A. Hyman, Max-Planck-Institute for Molecular Cell Biology and Genetics, Dresden, Germany) were treated with KIF2C inhibitors (10 μM DHTP or 10 μM 7S9) during imaging. Live-cell imaging was conducted on a Nikon T1 inverted fluorescence microscope (Nikon) with a 60× oil objective (Nikon), a Prime camera (Photometrics), and 37° C., 5% CO2 heat stage (Live Cell Instrument). Microtubule morphological changes were imaged at 3-min intervals. Images were obtained using ImageJ software processed with Gaussian Blur to remove the noise.
# [4] = tested on: 4T1 R4 cells; experiment: Colony formation assay, 4T1 R4 cells; type: cell-based, mouse; details: 1 μM 7S9 with 400 nM paclitaxel
# Protocol: (§2) To assess the long-term survival of breast cancer cell lines following the treatment of KIF2C knockdown or inhibition, the cells trypsinized into single-cell suspension were homogeneously seeded in 6-well cell culture plates at a density of 5000 cells per dish, supplemented with 2× complete medium (50% 4×DMEM, 20% FBS, 2% penicillin-streptomycin, ddH2O, and 2× glutaMAX™), agarose (0.6% for bottom agar layer; 0.3% for top cell layer), ddH2O, and DMEM. After incubation for 24 hr, cells were treated with indicated drugs, such as DMSO, KIF2C inhibitors, or chemotherapy drugs, and then cultured at 37° C. incubator in an atmosphere of humidified air with 5% CO2 for a further 14-30 days. When the cell colonies grew to appropriate sizes, the culture mediums were replaced with PBS for washing. After that, the plates were stained with 10% crystal violet and analyzed using Image J.
# [5] = tested on: 4T1 R8 cells; experiment: Colony formation assay, 4T1 R8 cells; type: cell-based, mouse; details: 1 μM 7S9 with 400 nM paclitaxel
# Protocol: as §2
# [6] = tested on: MDA-MB-231 R, MDA-MB-231 S, 4T1 S1, R4, and R8 cells; experiment: Cell viability of indicated cell lines, DHTP or 7S9 for 72 hr; type: cell-based; details: Homo sapiens, range over MDA-MB-231 R, read-out: cytotoxicity IC50 values
# Protocol: as §1
# [7] = tested on: 4T1 cells; experiment: In vivo tumor growth inhibition, 4T1 syngeneic model; set-up: species or system mouse; details: 4T1 tumors, BALB/c mice
# Protocol: The mice were housed at the National Health Research Institute (NHRI) Animal Center in accordance with the Institutional Animal Care and Use Committee procedures and guidelines. The 4T1-derived cells, including 4T1, 4T1 R4, and 4T1 R8, used for implantation were harvested during log phase growth and resuspended in phosphate-buffered saline. Each mouse was injected s.c. in the right flank with 5×10^5 cells. After tumor size reached 60-100 mm 3 (D1), mice were divided into groups and received treatment with vehicle or different compounds alone or in combinations. Tumor size, in mm 3, was measured twice per week and calculated from Tumor volume=(w 2×1)/2, where w=width and 1=length in mm of the tumor. The values of tumor size were expressed as mean±SEM.
# [8] = tested on: 4T1 R8 cells; experiment: Time-lapse imaging of mitotic progression, 4T1 R8 cells; type: cell-based, mouse; details: 1 μM 7S9 and 400 nM paclitaxel
# Protocol: To investigate the role of KIF2C in cell cycle progression, 4T1 cells were cultured in the 4-well chamber slide with about 50% confluence. The culture medium was replaced with a CO2-independent medium (Gibco) supplemented with 10% fetal bovine serum (Biological Industries) and 1% penicillin-streptomycin (Biowest). Then, each well of the chamber slide was treated with indicated drugs, such as DMSO, KIF2C inhibitors, or chemotherapy drugs. After that, the chamber slide was maintained in the microscope stage incubator with the supplement of humidified air with 5% CO2 at 37° C. Multiple-positional time-lapse imaging was performed using an automated Leica DM16000 inverted microscope equipped with HCX PL FL 20×/0.4 and EMCCD camera (Andor Luca R, Belfast, UK). Sequential differential interference contrast (DIC) images of cells obtained at indicated intervals were further analyzed using Metamorph software (Molecular Devices).
smiles,measurement,setting,value
"CCN1CCN(C(=O)COc2ccc(/C=c3\sc4n(c3=O)C(c3ccc(Cl)cc3)C(C(=O)OC(C)C)=C(C)N=4)cc2)CC1.O=C(O)/C=C\C(=O)O (stereo not drawn) [7S9 (133), isopropyl (Z)-5-(4-chlorophenyl)-2-(4-(2-(4-ethylpiperazin-1-yl)-2-oxoethoxy)benzylidene)-7-methyl-3-oxo-2,3-dihydro-5H-thiazolo[3,2-a]pyrimidine-6-carboxylate maleate]",fold increase of cell sensitivity to 7S9 by paclitaxel,[1],8 fold
same,KIF2C-mediated microtubule depolymerization (in words),[2],completely blocked
same,intracellular microtubule distribution phenotype (in words),[3],puncta formation of tubulins in the cytoplasm
same,"colony formation, combined treatment (in words)",[4],suppression of colony formation was detected only with combined treatment of 7S9 and paclitaxel
same,"colony formation, combined treatment (in words)",[5],suppression of colony formation was detected only with combined treatment of 7S9 and paclitaxel
same,IC50,[6],4.9 to 8.6 µM
same,tumor growth inhibition,"[7]; 7S9 50 mg/kg intraperitoneally, 5on/2off two cycles",20.3%
same,"tumor growth inhibition, combination",[7]; 7S9 50 mg/kg with paclitaxel 5 mg/kg,62.6%
same,"mitotic defects, combined treatment (in words)",[8],induced significant defects in mitosis
